Laboratory results: PMC2965873, “Phase I and pharmacological study of the broad-spectrum tyrosine kinase inhibitor JNJ-26483327 in patients with advanced solid tumours” (British Journal of Cancer, 2010)

Assays:
EGFR kinase = molecular target: EGFR kinase; set-up: method as in Johnson & Johnson, data on file; details: in vitro; ref Johnson & Johnson, data on file; cited from earlier work
healthy male volunteers = system: healthy male volunteers; set-up: method as in preceding study in healthy male volunteers; details: single doses up to and including 200 mg; ref preceding study in healthy male volunteers; cited from earlier work
Her4 = system: Her4; set-up: method as in Johnson & Johnson, data on file; details: ref Johnson & Johnson, data on file; read-out: IC50 range; cited from earlier work
[1] = set-up: method as in Johnson & Johnson, data on file; details: preclinical studies; ref Johnson & Johnson, data on file; cited from earlier work
[2] = system: mutationally activated EGFR kinases; set-up: method as in Johnson & Johnson, data on file; details: in vitro, several mutants; ref Johnson & Johnson, data on file; cited from earlier work
advanced solid tumours = test: anti-tumour activity (RECIST); assay type: in vivo, human; details: 19 patients
Protocol: (§1) Prior to therapy, a complete medical history was taken and a physical examination was performed. A complete blood cell (CBC) count, WBC count and differential and serum biochemistry including lipid profile and coagulation tests were performed, as were urinalysis, a 12-lead electrocardiogram (ECG) and MUGA scanning. Weekly evaluations during the first cycle, every other week during the second cycle and monthly thereafter included history, physical examination, adverse event assessment, CBC, WBC+differential, serum chemistry, ECG and urinalysis. An ECG was performed predose and 1, 2, 4, 8 and 24 h postdose on days 1 and 28. Follow-up of LVEF by MUGA scanning was performed at the end of the first and second cycle. Tumour measurements were performed at baseline and during every other cycle. Response was assessed according to RECIST ([Therasse et al, 2000]).

[3] = phase I plasma pharmacokinetics; assay type: in vivo, human
Protocol: For pharmacokinetic analysis, blood samples (3 ml) were collected before dosing and 0.5, 1, 2, 3, 4, 6, 8 and 24 h after drug administration on days 1 and 28 and predose, 0.5, 1, 2, 4 and 6 h postdose on day 15 of the first cycle and day 28 of the second cycle. Furthermore, trough PK samples were taken before drug administration on days 8 and 22. Blood samples were collected and protected from light in EDTA-Vacutainer® tubes and plasma was separated by centrifugation and stored at −20°C within 2 h of collection. Plasma concentrations of JNJ-26483327 were determined by validated, selective and sensitive liquid chromatography–mass spectrometry bioanalytical method.
Graphical analysis was performed using dose-normalised Cmax as well as AUC of days 1 and 28 for exploration of dose proportionality across doses.
The pharmacokinetic analysis and descriptive statistics were performed using PKAA 2.00 (developed for J&JPRD). PKAA 2.00 uses WinNonLin 5.2.1. Elimination rate constants (λz) were calculated as the negative of the slope of the terminal log-linear segment of the plasma concentration–time curves. The range of data used for each subject and dose were determined by visual inspection of a semi-logarithmic plot of concentration vs time. At least three data points were used to estimate λz. All PK calculations and figures used validated software.

Flt3 = system: Flt3; set-up: method as in Johnson & Johnson, data on file; details: ref Johnson & Johnson, data on file; cited from earlier work
Yes = system: Yes; set-up: method as in Johnson & Johnson, data on file; details: Src family; ref Johnson & Johnson, data on file; read-out: IC50 range; cited from earlier work
xenograft mouse models = system: xenograft mouse models; set-up: method as in Johnson & Johnson, data on file; details: preclinical studies; ref Johnson & Johnson, data on file; cited from earlier work
[4] = system: patients with advanced solid tumours; test: phase I safety, DLT and MTD; assay type: in vivo
Protocol: JNJ-26483327 was supplied by Johnson & Johnson Pharmaceutical Research and Development, Beerse, Belgium as 10 or […] oral solution for doses ⩽1200 mg, or capsules of 50, 100 or 300 mg for doses ⩾1500 mg. Medication was taken in combination with food BID with 12 h intervals. A cycle was defined as 28 days of treatment.
The study followed an accelerated-escalation design. Initial cohorts consisted of one patient with dose doublings between cohorts in the absence of grade ⩾2 toxicity according to the National Cancer Institute Common Toxicity Criteria version 3.0 during the first cycle (http://ctep.cancer.gov/protocolDevelopment/electronic_applications/docs/ctcaev3.pdf). Once grade ⩾2 considered drug-related toxicity occurred during the first cycle, two additional patients were enrolled at that dose level with subsequent cohorts in accordance with a conventional dose-escalation (3+3) model. DLT was defined as any grade 3 or 4 non-haematological toxicity, except for nausea, vomiting or diarrhoea responsive to treatment; grade 3 skin rash/acne responsive to treatment, alopecia and isolated grade 3 GGT elevations; need for loperamide for >7 days to treat or prevent grade ⩾2 diarrhoea; need for continuous administration of 5HT-3 antagonists for >7 days to treat or prevent grade ⩾2 nausea or vomiting; a relative decrease of LVEF on MUGA scan of >20% compared with baseline; any grade 4 haematological toxicity or treatment interruptions of >14 days for grade ⩾2 toxicity in cycle 1.
If during the conventional escalation stage no DLT occurred, the dose for the next cohort was incremented with 20–100%. If DLT was observed during cycle 1 in one of three patients, an additional three patients were enrolled at that dose level. If ⩾2 out of 6 patients experienced DLT, the MTD was exceeded and three more patients were enrolled at the next lower dose level, unless already six patients had been accrued at that dose. The MTD was defined as the highest dose at which less than one-third of the patients experienced DLT.
as §1

Her2 = system: Her2; set-up: method as in Johnson & Johnson, data on file; details: ref Johnson & Johnson, data on file; cited from earlier work
Fyn = system: Fyn; set-up: method as in Johnson & Johnson, data on file; details: Src family; ref Johnson & Johnson, data on file; read-out: IC50 range; cited from earlier work
RET-receptor kinase = molecular target: RET-receptor kinase; set-up: method as in Johnson & Johnson, data on file; details: in vitro; ref Johnson & Johnson, data on file; cited from earlier work
Lyn = system: Lyn; set-up: method as in Johnson & Johnson, data on file; details: Src family; ref Johnson & Johnson, data on file; read-out: IC50 range; cited from earlier work
[5] = set-up: method as in Johnson & Johnson, data on file; details: ref Johnson & Johnson, data on file; cited from earlier work
c-Src = system: c-Src; set-up: method as in Johnson & Johnson, data on file; details: ref Johnson & Johnson, data on file; cited from earlier work
[6] = 800 mg BID, day 1, n=3, mean±s.d.
[7] = 800 mg BID, day 28 (steady state), n=2, mean
[8] = 1200 mg BID, day 1, n=3, mean±s.d.
[9] = 1200 mg BID, day 28 (steady state), n=2, mean
[10] = 1500 mg BID, day 1, n=6, mean±s.d.
[11] = 1500 mg BID, day 28 (steady state), n=6, mean±s.d.
[12] = 2100 mg BID, day 1, n=3, mean±s.d.
[13] = 2100 mg BID, day 28 (steady state), n=2, mean

COc1cc2ncnc3c2cc1OCCCCCN(C)Cc1ccc(Br)cc1N3 [JNJ-26483327]
IC50 (EGFR kinase): < 10 nM
safety and tolerability (healthy male volunteers): safe and well tolerated
IC50 (Her4): 11 to 99 nM
tissue distribution profile [1]: passage of the blood–brain barrier
IC50 [2]: < 10 nM
patients with stable disease lasting more than two cycles (advanced solid tumours; 100–2100 mg BID): six
patients with stable disease (advanced solid tumours; more than two cycles): 32%
CL/F [3, 6]: 86.3 ± 33.5 L/h
Cmax [3, 6]: 2210 ± 593 ng/mL
Vdz/F [3, 6]: 1021 ± 401 L
t1/2 [3, 6]: 8.4 ± 1.8 h
tmax ([3]; 800 mg BID, day 1, n=3, median (min–max)): 2.03 (2.00–3.02) h
AUC (AUCtau) [3, 7]: 10 623 ng h ml^−1
CL/F [3, 7]: 76.4 L/h
Cmax [3, 7]: 2390 ng/mL
tmax ([3]; 800 mg BID, day 28 (steady state), n=2, median (min–max)): 1.52 (1.00–2.03) h
CL/F [3, 8]: 47.4 ± 35.3 L/h
Cmax [3, 8]: 3707 ± 1927 ng/mL
Vdz/F [3, 8]: 342 ± 212 L
t1/2 [3, 8]: 5.2 ± 1.7 h
tmax ([3]; 1200 mg BID, day 1, n=3, median (min–max)): 3.00 (2.00–6.00) h
AUC (AUCtau) [3, 9]: 21 230 ng h ml^−1
CL/F [3, 9]: 88.4 L/h
Cmax [3, 9]: 2750 ng/mL
tmax ([3]; 1200 mg BID, day 28 (steady state), n=2, median (min–max)): 1.00 (1.00–1.00) h
CL/F [3, 10]: 144 ± 104 L/h
Cmax [3, 10]: 2361 ± 1765 ng/mL
Vdz/F [3, 10]: 1038 ± 799 L
t1/2 [3, 10]: 4.8 ± 0.5 h
tmax ([3]; 1500 mg BID, day 1, n=6, median (min–max)): 4.00 (2.00–4.03) h
CL/F [3, 11]: 286 ± 540 L/h
Cmax [3, 11]: 3375 ± 2116 ng/mL
tmax ([3]; 1500 mg BID, day 28 (steady state), n=6, median (min–max)): 3.99 (3.00–12.00) h
CL/F [3, 12]: 3055 ± 5099 L/h
t1/2 [3, 12]: 6.7 ± 1.7 h
Cmax ([3]; 2100 mg BID, day 1, n=4, mean±s.d.): 2213 ± 2983 ng/mL
tmax ([3]; 2100 mg BID, day 1, n=4, median (min–max)): 3.54 (2.00–4.08) h
AUC (AUCtau) [3, 13]: 8467 ng·h/mL
CL/F [3, 13]: 3087 L/h
Cmax [3, 13]: 1236 ng/mL
tmax ([3]; 2100 mg BID, day 28 (steady state), n=2, median (min–max)): 5.00 (4.00–6.00) h
dose proportionality of pharmacokinetics ([3]; Cmax and AUC at steady state): dose proportional up to 1500 mg
terminal half-life ([3]; all dose levels): 5 to 8 h
peak concentration (average) ([3]; day 1, 1200 mg): ~4 μg ml^–1
Cmax ([3]; day 1, 1500 and 2100 mg dose groups): ~2 μg ml^–1
time to reach Cmax ([3]; first administration, capsule formulation (dose levels 1500 and 2100 mg)): up to 4 h
time to reach Cmax ([3]; first administration, liquid formulation (dose levels 800 and 1200 mg)): 2 to 3 h
time to reach Cmax ([3]; steady state (days 15 and 28), capsule formulation): 2 to 5 h
time to reach Cmax ([3]; steady state (days 15 and 28), liquid formulation): 1 to 2 h
IC50 (Flt3): 100 to 1000 nM
IC50 (Yes): 11 to 99 nM
anti-cancer activity (xenograft mouse models): anti-cancer activity was observed
Anaemia: patients, Total % ([4]; in vivo): 15.8%
Anaemia: patients, Total n ([4]; in vivo): 3
Anorexia: patients, Total % ([4]; in vivo): 42.1%
Constipation: patients, Total % ([4]; in vivo): 10.5%
Constipation: patients, Total n ([4]; in vivo): 2
Diarrhoea: patients, Total n ([4]; in vivo): 12
Dry skin: patients, Total % ([4]; in vivo): 10.5%
Dry skin: patients, Total n ([4]; in vivo): 2
Dyspepsia: patients, Total % ([4]; in vivo): 10.5%
Dyspepsia: patients, Total n ([4]; in vivo): 2
Dysphonia: patients, Total % ([4]; in vivo): 15.8%
Dysphonia: patients, Total n ([4]; in vivo): 3
Fatigue: patients, Total % ([4]; in vivo): 47.4%
Fatigue: patients, Total n ([4]; in vivo): 9
Nausea: patients, Total % ([4]; in vivo): 68.4%
Nausea: patients, Total n ([4]; in vivo): 13
Pain: patients, Total % ([4]; in vivo): 10.5%
Pain: patients, Total n ([4]; in vivo): 2
Rash: patients, Total % ([4]; in vivo): 57.9%
Rash: patients, Total n ([4]; in vivo): 11
Skin discolouration: patients, Total % ([4]; in vivo): 5.3%
Skin discolouration: patients, Total n ([4]; in vivo): 1
Skin exfoliation (palms): patients, Total % ([4]; in vivo): 5.3%
Skin exfoliation (palms): patients, Total n ([4]; in vivo): 1
Vomiting: patients, Total % ([4]; in vivo): 52.6%
Vomiting: patients, Total n ([4]; in vivo): 10
Weight decreased: patients, Total % ([4]; in vivo): 10.5%
Weight decreased: patients, Total n ([4]; in vivo): 2
gastrointestinal side effects, incidence ([4]; in vivo): 95%
hypertension ([4]; in vivo): no hypertension was noted
patients with grade 2 anaemia ([4]; in vivo): three
skin toxicity, overall incidence ([4]; in vivo): 68%
subjects with a significant decrease in LVEF ([4]; in vivo): None
recommended dose for further studies (phase 2 dose) ([4]; in vivo, po): 1500 mg BID
maximum tolerated dose (MTD) ([4]; oral, continuous, 28-day cycles): 1500 mg BID
IC50 (Her2): 100 to 1000 nM
IC50 (Fyn): 11 to 99 nM
IC50 (RET-receptor kinase): < 10 nM
IC50 (Lyn): 11 to 99 nM
oral bioavailability [5]: ~80%
IC50 (c-Src): 100 to 1000 nM
